Drawing on patent US20250163104A1, “MACROCYCLIC IMMUNOMODULATORS” (priority 2021, published 2025), this text covers IC50 for 14 compounds.

This experiment deals with T1, human PD-1 / PD-L1-Ig binding on Jurkat cell line over-expressing human PD-1 (Jurkat-PD-1) (Homo sapiens, UniProt Q15116).
T1 construct: expressed in transfected cells; host or cells: Jurkat
Briefly: Jurkat-PD-1 Cell Binding High-Content Screening Assay (CBA). Type of experiment: cell-based. To be noted: PE-labeled PD-L1-Ig 20 nM final. The procedure, abridged: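 Compounds were preincubated with Jurkat-hPD-1 cells in DMEM plus 10% fetal calf serum for 2 h at 37° C. Phycoerythrin-labeled PD-L1-Ig (20 nM final) was then added for 1 hour. Cells were fixed in 4% paraformaldehyde with Hoechst 33342, and bound fluorescence was quantified by high-content imaging.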

Where [1] appears, read: Jurkat-PD-1 cells, read-out: Jurkat HPD1_PDL1 IC50.

Read-outs that look alike come from different tables or passages of the source. Where a SMILES comes first, the peptide text is derived from it. Bridges are numbered along the chain shown (N, C = ends). [ ]: non-standard residue; d: D form. The star is where a group is joined. ξ: configuration not given here. Bip(3'-COOH) = N[C@@H](Cc1ccc(-c2cccc(C(=O)O)c2)cc1)C(=O)O; Phe(3,4-Cl2) = N[C@@H](Cc1ccc(Cl)c(Cl)c1)C(=O)O; Phe(3-CF3) = N[C@@H](Cc1cccc(C(F)(F)F)c1)C(=O)O; Ala(morpholin-4-yl) = N[C@@H](CN1CCOCC1)C(=O)O; Phe(4-COOH) = N[C@@H](Cc1ccc(C(=O)O)cc1)C(=O)O; Bip = N[C@@H](Cc1ccc(-c2ccccc2)cc1)C(=O)O; Phe(4-NH2) = Nc1ccc(C[C@H](N)C(=O)O)cc1; Phe(3-Me) = Cc1cccc(C[C@H](N)C(=O)O)c1; Val(3-OH) = CC(C)(O)[C@H](N)C(=O)O; 4Pal = N[C@@H](Cc1ccncc1)C(=O)O; Cha = N[C@@H](CC1CCCCC1)C(=O)O; Thr(3ξ) = CC(O)[C@H](N)C(=O)O; Hpra = C#CCC[C@H](N)C(=O)O; Carboxymethyl = O=C(O)C*; Orn = NCCC[C@H](N)C(=O)O; Dab = NCC[C@H](N)C(=O)O; Dap = NC[C@H](N)C(=O)O; NH(CH2)3NH2 = NCCCN*; Piv = CC(C)(C)C(=O)*; Propargyl = C#CC*

T1 sequence (Q15116 25-288): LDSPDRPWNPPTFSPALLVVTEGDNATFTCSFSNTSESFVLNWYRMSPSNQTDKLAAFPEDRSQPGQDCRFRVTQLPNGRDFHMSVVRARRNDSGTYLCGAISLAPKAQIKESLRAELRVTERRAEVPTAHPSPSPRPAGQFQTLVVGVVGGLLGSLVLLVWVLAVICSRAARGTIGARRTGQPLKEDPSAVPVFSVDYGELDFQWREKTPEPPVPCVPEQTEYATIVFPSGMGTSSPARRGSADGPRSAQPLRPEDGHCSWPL

Turning to `CC(C)C[C@H]1NC(=O)[C@H](CCCN)NC(=O)[C@H](CCC(=O)O)NC(=O)[C@H](Cc2ccc(-c3ccccc3)cc2)NC(=O)[C@H](C(C)C)NC(=O)[C@H](Cc2c[nH]c3ccccc23)NC(=O)[C@H](CC(=O)O)NC(=O)[C@H](Cc2ccc(OCC(=O)O)cc2)NC(=O)[C@H](Cc2ccc(OCC(=O)O)cc2)NC(=O)CSC[C@@H](C(=O)N[C@@H](C)C(N)=O)NC(=O)[C@H]([C@@H](C)O)NC(=O)[C@H](C(C)C)NC(=O)[C@H](Cc2ccccc2)NC(=O)[C@H](CCN)NC1=O` [Compound 1668] ({CH2CO}-Y(Carboxymethyl)Y(Carboxymethyl)DWV[Bip]E[Orn][dL][Dab]FVTCA-NH2; thioether N-14), the IC50 (as a rule, the concentration at which inhibition is half-maximal) under setting [1] was determined as 48.7 nM.

Take `CC(C)C[C@H]1NC(=O)[C@H](CCCN)NC(=O)[C@H](CCC(=O)O)NC(=O)[C@H](Cc2ccc(-c3ccccc3)cc2)NC(=O)[C@H](C(C)C)NC(=O)[C@H](Cc2c[nH]c3ccccc23)NC(=O)[C@H](CC(=O)O)NC(=O)[C@H](Cc2ccc(-c3cccc(C(=O)O)c3)cc2)NC(=O)[C@H](CC(N)=O)NC(=O)CSC[C@@H](C(=O)N[C@@H](C)C(N)=O)NC(=O)[C@H]([C@@H](C)O)NC(=O)[C@H](C(C)C)NC(=O)[C@H](CC2CCCCC2)NC(=O)[C@H](CCN)NC1=O` [Compound 2160] ({CH2CO}-N[Bip(3'-COOH)]DWV[Bip]E[Orn][dL][Dab][Cha]VTCA-NH2; thioether N-14): the IC50 under setting [1] was 14.3 nM.

Take `CC(C)C[C@H]1NC(=O)[C@H](CCCN)NC(=O)[C@H](Cc2ccc(C(=O)O)cc2)NC(=O)[C@H](Cc2ccc(-c3ccccc3)cc2)NC(=O)[C@H](Cc2ccc(Cl)c(Cl)c2)NC(=O)[C@H](Cc2cccc(C(F)(F)F)c2)NC(=O)[C@H](CC(=O)O)NC(=O)[C@H](Cc2ccc(C(=O)O)cc2)NC(=O)[C@H](CN2CCOCC2)NC(=O)CSC[C@@H](C(=O)N[C@@H](CCN)C(N)=O)NC(=O)[C@H](CCC(=O)O)NC(=O)[C@H](C(C)C)NC(=O)[C@H](CC2CCCCC2)NC(=O)[C@H](CCN)NC1=O` [Example 2745] ({CH2CO}-[Ala(morpholin-4-yl)][Phe(4-COOH)]D[Phe(3-CF3)][Phe(3,4-Cl2)][Bip][Phe(4-COOH)][Orn][dL][Dab][Cha]VEC[Dab]-NH2; thioether N-14): the IC50 under setting [1] worked out at 2.3 nM. For the compound `Cc1cccc(C[C@@H]2NC(=O)[C@H](CC(=O)O)NC(=O)[C@H](Cc3ccncc3)NC(=O)[C@H](Cc3ccc(OCC(=O)O)cc3)NC(=O)CSC[C@@H](C(=O)NCC(N)=O)NC(=O)[C@H](CO)NC(=O)[C@H](C(C)C)NC(=O)[C@H](CC3CCCCC3)NC(=O)[C@H](Cc3c[nH]cn3)NC(=O)[C@@H](CC(C)C)NC(=O)[C@H](CCCN)NC(=O)[C@H](C(C)C)NC(=O)[C@H](Cc3ccc(-c4ccccc4)cc3)NC(=O)[C@H](CC(C)C)NC2=O)c1` [Compound 1585] ({CH2CO}-Y(Carboxymethyl)[4Pal]D[Phe(3-Me)]L[Bip]V[Orn][dL]H[Cha]VSCG-NH2; thioether N-14), under “Jurkat HPD1_PDL1 IC50, Jurkat-PD-1 cells”, the IC50 was 50.4 nM.

Turning to `CC(C)C[C@H]1NC(=O)[C@H](CCCN)NC(=O)[C@H](CCCNC(N)=O)NC(=O)[C@H](Cc2ccc(-c3ccccc3)cc2)NC(=O)[C@H](C(C)C)NC(=O)[C@H](Cc2c[nH]c3ccccc23)NC(=O)[C@H](CC(=O)O)NC(=O)[C@H](Cc2ccc(OCC(=O)O)cc2)NC(=O)[C@H](CN)NC(=O)CSC[C@@H](C(=O)N[C@@H](C)C(N)=O)NC(=O)[C@H]([C@@H](C)O)NC(=O)[C@H](C(C)C)NC(=O)[C@H](Cc2cccnc2)NC(=O)[C@H](CCN)NC1=O` [Compound 1350], under setting [1], the IC50 was 162 nM. Same read-out and setting: next, `Cc1cccc(C[C@@H]2NC(=O)[C@H](CC(=O)O)NC(=O)[C@H](Cc3ccc(OCC(=O)O)cc3)NC(=O)[C@H](CN)NC(=O)CSC[C@@H](C(=O)N[C@@H](CCN)C(N)=O)NC(=O)[C@H](CCCN)NC(=O)[C@H](C(C)C)NC(=O)[C@H](CC3CCCCC3)NC(=O)[C@H](CCN)NC(=O)[C@@H](CC(C)C)NC(=O)[C@H](CCNC(=O)C(C)(C)C)NC(=O)[C@H](Cc3ccc(O)cc3)NC(=O)[C@H](Cc3ccc(-c4ccccc4)cc3)NC(=O)[C@H](Cc3ccc(O)cc3)NC2=O)c1` [Compound 2038] ({CH2CO}-[Dap]Y(Carboxymethyl)D[Phe(3-Me)]Y[Bip]Y[Dab](Piv)[dL][Dab][Cha]V[Orn]C[Dab]-NH2; thioether N-14): 19.4 nM; `CC(C)C[C@@H]1NC(=O)[C@H](CCN)NC(=O)[C@@H](CC(C)C)NC(=O)[C@H](CCCN)NC(=O)[C@H](C(C)C)NC(=O)[C@H](Cc2ccc(-c3ccccc3)cc2)NC(=O)[C@H](C(C)C)NC(=O)[C@H](Cc2c[nH]c3ccccc23)NC(=O)[C@H](CC(=O)O)NC(=O)[C@H](Cc2ccc(O)cc2)NC(=O)[C@H](CC(N)=O)NC(=O)CSC[C@@H](C(=O)N[C@@H](C)C(N)=O)NC(=O)[C@H](CO)NC(=O)[C@H](C(C)C)NC1=O` [Compound 1127] ({CH2CO}-NYDWV[Bip]V[Orn][dL][Dab]LVSCA-NH2; thioether N-14): 15 nM; `CC(C)C[C@H]1NC(=O)[C@H](CCCN)NC(=O)[C@H](C(C)C)NC(=O)[C@H](Cc2ccc(-c3ccccc3)cc2)NC(=O)[C@H](C(C)C)NC(=O)[C@H](Cc2c[nH]c3ccccc23)NC(=O)[C@H](CC(=O)O)NC(=O)[C@H](Cc2ccc(C(=O)O)cc2)NC(=O)[C@H](Cc2ccc(OCC(=O)O)cc2)NC(=O)CSC[C@@H](C(=O)N[C@@H](C)C(N)=O)NC(=O)[C@H]([C@@H](C)O)NC(=O)[C@H](C(C)C)NC(=O)[C@H](Cc2ccccc2)NC(=O)[C@H](CCN)NC1=O` [Compound 1662] ({CH2CO}-Y(Carboxymethyl)[Phe(4-COOH)]DWV[Bip]V[Orn][dL][Dab]FVTCA-NH2; thioether N-14): 27.4 nM. Same read-out and setting: for `C#CCOc1ccc(C[C@@H]2NC(=O)[C@H](CN)NC(=O)CSC[C@@H](C(=O)N[C@@H](CCN)C(N)=O)NC(=O)[C@H](CCC(=O)O)NC(=O)[C@H](C(C)C)NC(=O)[C@H](CC3CCCCC3)NC(=O)[C@H](CCN)NC(=O)[C@@H](CC(C)C)NC(=O)[C@H](CCCN)NC(=O)[C@H](Cc3ccc(OCC(=O)O)cc3)NC(=O)[C@H](Cc3ccc(-c4ccccc4)cc3)NC(=O)[C@H](Cc3ccc(OCC(=O)O)cc3)NC(=O)[C@H](Cc3cccc(C)c3)NC(=O)[C@H](CC(=O)O)NC2=O)cc1` [Compound 1819] ({CH2CO}-[Dap]Y(Propargyl)D[Phe(3-Me)]Y(Carboxymethyl)[Bip]Y(Carboxymethyl)[Orn][dL][Dab][Cha]VEC[Dab]-NH2; thioether N-14) the value was 3.7 nM.

For the compound `CC(C)C[C@H]1NC(=O)[C@H](CCCN)NC(=O)[C@H](CN)NC(=O)[C@H](Cc2ccc(-c3ccccc3)cc2)NC(=O)[C@H](C(C)C)NC(=O)[C@H](Cc2c[nH]c3ccccc23)NC(=O)[C@H](CC(=O)O)NC(=O)[C@H](Cc2ccc(C(=O)O)cc2)NC(=O)[C@H](Cc2ccc(OCC(=O)O)cc2)NC(=O)CSC[C@@H](C(=O)N[C@@H](C)C(N)=O)NC(=O)[C@H]([C@@H](C)O)NC(=O)[C@H](C(C)C)NC(=O)[C@H](CC2CCCCC2)NC(=O)[C@H](CCN)NC1=O` [Compound 1384], under setting [1], the half-maximal inhibitory concentration (IC50) came out at 11 nM. Same read-out and setting: for `C#CCC[C@@H]1NC(=O)[C@H](CC2CCCCC2)NC(=O)[C@H](CCN)NC(=O)[C@@H](CC(C)C)NC(=O)[C@H](CCCN)NC(=O)[C@H](C(C)C)NC(=O)[C@H](Cc2ccc(-c3ccccc3)cc2)NC(=O)[C@H](C(C)C)NC(=O)[C@H](Cc2cccc(C)c2)NC(=O)[C@H](CC(=O)O)NC(=O)[C@H](Cc2ccc(OCC(=O)O)cc2)NC(=O)[C@H](CN)NC(=O)CSC[C@@H](C(N)=O)NC(=O)[C@H]([C@@H](C)O)NC1=O` [Compound 2012] ({CH2CO}-[Dap]Y(Carboxymethyl)D[Phe(3-Me)]V[Bip]V[Orn][dL][Dab][Cha][Hpra]TC-NH2; thioether N-14) the value was 15.8 nM; for `CC(C)C[C@H]1NC(=O)[C@H](CCCN)NC(=O)[C@H](CCCNC(N)=O)NC(=O)[C@H](Cc2ccc(-c3ccccc3)cc2)NC(=O)[C@H](C(C)C)NC(=O)[C@H](Cc2c[nH]c3ccccc23)NC(=O)[C@H](CC(=O)O)NC(=O)[C@H](Cc2ccc(OCC(=O)O)cc2)NC(=O)[C@H](CN)NC(=O)CSC[C@@H](C(=O)N[C@@H](C)C(N)=O)NC(=O)[C@H]([C@@H](C)O)NC(=O)[C@H](C(C)C)NC(=O)[C@H](CCC2CCCCC2)NC(=O)[C@H](CCN)NC1=O` [Compound 1348], 40 nM; for `Cc1cccc(C[C@@H]2NC(=O)[C@H](CC(=O)O)NC(=O)[C@H](Cc3ccc(OCC(=O)O)cc3)NC(=O)[C@H](CCN)NC(=O)CSC[C@@H](C(=O)N[C@@H](CO)C(=O)NCCCN)NC(=O)[C@H](C(C)O)NC(=O)[C@H](C(C)(C)O)NC(=O)[C@H](CC3CCCCC3)NC(=O)[C@H](Cc3cnc[nH]3)NC(=O)[C@@H](CC(C)C)NC(=O)[C@H](CCCN)NC(=O)[C@H](Cc3ccc(OCC(=O)O)cc3)NC(=O)[C@H](Cc3ccc(-c4ccccc4)cc3)NC(=O)[C@H](Cc3ccc(OCC(=O)O)cc3)NC2=O)c1` (stereo partly drawn) [Compound 2648] ({CH2CO}-[Dab]Y(Carboxymethyl)D[Phe(3-Me)]Y(Carboxymethyl)[Bip]Y(Carboxymethyl)[Orn][dL]H[Cha][Val(3-OH)][Thr(3ξ)]CS-{NH(CH2)3NH2}; thioether N-14), 98 nM. On the same count and under the same terms, next, `CC(C)C[C@H]1NC(=O)[C@H](CCCN)NC(=O)[C@H](CCC(=O)O)NC(=O)[C@H](Cc2ccc(-c3ccccc3)cc2)NC(=O)[C@H](C(C)C)NC(=O)[C@H](Cc2c[nH]c3ccccc23)NC(=O)[C@H](CC(=O)O)NC(=O)[C@H](Cc2ccc(OCC(=O)O)cc2)NC(=O)[C@H](CN)NC(=O)CSC[C@@H](C(=O)N[C@@H](C)C(N)=O)NC(=O)[C@H]([C@@H](C)O)NC(=O)[C@H](C(C)C)NC(=O)[C@H](Cc2ccc(N)cc2)NC(=O)[C@H](CCN)NC1=O` [Compound 1473] ({CH2CO}-[Dap]Y(Carboxymethyl)DWV[Bip]E[Orn][dL][Dab][Phe(4-NH2)]VTCA-NH2; thioether N-14): 801 nM.
